The values below come from ChEMBL document CHEMBL1143540, “Synthesis and in vivo antihyperglycemic activity of 5-(1H-pyrazol-3-yl)methyl-1H-tetrazoles” (2005).

The test has as its system Rattus norvegicus. Nature of the test: Percent fall in blood glucose level in male Sprague-Dawley rats when at 100 mg/kg dose was calculated by AUC method. Type of test: functional.
On to `c1csc(-c2cc(Cc3nnn[nH]3)n[nH]2)c1`, for which the Activity is recorded as 21.4%.
In the case of `CSc1ccc(-c2cc(Cc3nnn[nH]3)[nH]n2)cc1`, the Activity is 6.06%.
Regarding `CSCCOc1ccc(-c2cc(Cc3nnn[nH]3)[nH]n2)cc1`, the Activity is recorded as 24.6%.
The same measure for `CN(CCOc1ccc(-c2cc(Cc3nnn[nH]3)[nH]n2)cc1)Cc1ccccc1`: 18%.
The same measure for `CN(C)C(=N)NC(=N)N` [METFORMIN]: 12.9%; for `Clc1ccc(-c2cc(Cc3nnn[nH]3)[nH]n2)cc1`: 10.8%.
The same measure for `c1ccc2oc(-c3cc(Cc4nnn[nH]4)n[nH]3)cc2c1`: 6.2%; for `c1ccc(-c2cc(Cc3nnn[nH]3)n[nH]2)cc1`: 10.6%.
As to `Brc1ccc(-c2cc(Cc3nnn[nH]3)[nH]n2)cc1`, the Activity is 18%.
